From patent US20240327764A1, “Manufacturing a Distilled Spirit Based Functional Ingredient” (priority 2022, published 2024)

Legend:
[1] = target: T1, MAO A (Homo sapiens, UniProt P21397); assay: MAO A inhibitory activity assay (% inhibition); format: biochemical; conditions: terpene added at 0.5% (v/v) to Don Julio Añejo (40% ABV) versus 40% ethanol
T1 sequence (P21397 1-527): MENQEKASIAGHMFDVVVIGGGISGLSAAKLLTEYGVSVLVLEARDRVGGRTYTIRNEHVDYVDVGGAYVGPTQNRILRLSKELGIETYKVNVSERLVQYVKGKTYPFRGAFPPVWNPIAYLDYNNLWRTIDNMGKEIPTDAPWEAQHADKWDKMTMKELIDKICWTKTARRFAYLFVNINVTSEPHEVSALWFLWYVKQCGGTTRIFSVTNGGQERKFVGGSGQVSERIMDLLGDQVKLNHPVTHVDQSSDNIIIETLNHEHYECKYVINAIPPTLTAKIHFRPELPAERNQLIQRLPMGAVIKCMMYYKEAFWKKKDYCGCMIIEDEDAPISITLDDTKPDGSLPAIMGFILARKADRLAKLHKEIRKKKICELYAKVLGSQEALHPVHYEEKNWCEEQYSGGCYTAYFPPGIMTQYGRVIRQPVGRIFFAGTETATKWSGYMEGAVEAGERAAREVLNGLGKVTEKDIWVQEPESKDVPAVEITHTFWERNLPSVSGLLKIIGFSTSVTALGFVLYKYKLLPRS
From the text: (§1) U.S. […] The contents of this document are incorporated herein by reference, but briefly, methods that include reverse osmosis and low-pressure evaporation to provide retentates with significant concentrations of these inhibitors are described. In addition, details of assay methods for monoamine oxidase activity (and therefore inhibition thereof) and for ethanol content are provided.

[2] = target: T2, MAO B (Homo sapiens, UniProt P27338); assay: MAO B inhibitory activity assay (% inhibition); format: biochemical; conditions: terpene added at 0.5% (v/v) to Don Julio Añejo (40% ABV) versus 40% ethanol
T2 sequence (P27338 1-520): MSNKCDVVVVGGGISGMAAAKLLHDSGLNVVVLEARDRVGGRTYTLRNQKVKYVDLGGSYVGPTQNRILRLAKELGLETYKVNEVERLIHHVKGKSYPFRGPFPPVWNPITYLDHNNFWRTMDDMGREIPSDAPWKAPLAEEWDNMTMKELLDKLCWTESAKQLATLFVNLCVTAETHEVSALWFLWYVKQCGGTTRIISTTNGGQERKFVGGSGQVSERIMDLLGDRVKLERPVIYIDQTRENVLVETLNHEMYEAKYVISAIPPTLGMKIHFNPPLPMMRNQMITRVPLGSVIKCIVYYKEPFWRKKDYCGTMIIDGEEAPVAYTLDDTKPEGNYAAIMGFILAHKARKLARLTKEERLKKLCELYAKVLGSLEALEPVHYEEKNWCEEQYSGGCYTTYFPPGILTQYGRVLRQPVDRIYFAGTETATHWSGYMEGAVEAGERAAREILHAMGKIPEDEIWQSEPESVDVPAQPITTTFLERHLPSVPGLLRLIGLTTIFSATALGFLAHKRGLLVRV
From the text: as §1

SMILES: C=C(C)[C@@H]1CCC2=CCC[C@@H](C)[C@]2(C)C1 [valencene]
- Δ % Inhibition MAO A (DJA + terpene) − (ETOH + terpene) [1]: 9%
- Δ % Inhibition MAO B (DJA + terpene) − (ETOH + terpene) [2]: 20%
